Results: patent US20140357633A1, “COMPOUNDS FOR INHIBITING THE INTERACTION OF BCL2 WITH BINDING PARTNERS” (NOVARTIS AG, priority 2011, published 2014)
Values joined by “and” are separate entries in the source; they are usually repeats but may differ in a detail not shown here. Equal entries are not always repeated.

Legend:
[1] = molecular target: BCL-2 (binding to BAD peptide) (Homo sapiens, UniProt P10415); test: SPR (Biacore) solution inhibition assay, BCL-2 binding to immobilized BAD peptide; conditions: biotinylated BAD peptide surface, 56 nM BCL-2, 25° C.; range = high and low IC50 values from multiple experiments; read-out: BCL2_SPR IC50 BAD
From the text: (§1) The present method includes utility of a Surface plasmon resonance (SPR)-based biosensor (Biacore™′ GE Healthcare, Uppsala, Sweden) to characterize BCL-2 inhibitors.
(§2) Biacore™ utilizes the phenomenon of surface plasmon resonance (SPR) to detect and measure binding interactions. In a typical Biacore experiment, one of the interacting molecules (ligand) is immobilized on a flexible dextran matrix while the interacting partner (analyte) is allowed to flow across that surface. A binding interaction results in an increase in mass on the sensor surface and a corresponding direct change in the refractive index of the medium in the vicinity of the sensor surface. Changes in refractive index or signal are recorded in resonance units (R.U.) Signal changes due to association and dissociation of complexes are monitored in a non-invasive manner, continuously and in real-time, the results of which are reported in the form of a sensorgram.
(§3) The SPR assay is configured to examine solution inhibition of BCL-2 binding to peptide derivatized sensor surfaces to generate IC50 values as a measure of inhibitor potency.
(§4) Biacore™ A100 (GE Healthcare, Uppsala, Sweden) was used to conduct all experiments reported herein. Sensor surface preparation and all interaction analyses experiments were performed at 25° C. Reagents were purchased from GE Healthcare. Running buffer containing 10 mM Hepes, pH7.4, 150 mM sodium chloride, 1.25 mM Dithiothreitol, 3% Dimethyl sulfoxide and 0.05% polysorbate 20 were utilized throughout all analyses.
(§5) Biotinylated BAK, BAD and NOXA peptides were diluted to 10 nM in running buffer and captured onto a sensor surface pre-derivatized with streptavidin (sensor chip SA) to peptide surface densities in the range 50-100 R.U. Peptide captured surfaces were blocked with 500 μM PEO2-Biotin.
(§6) Interaction analyses were performed by first equilibrating each sample within a 6 point three fold compound dilution series in the range 16 μM to […] with 56 nM BCL-2 for one hour during instrument start-up procedures. Protein compound mixtures were then injected over each peptide surface in parallel for 60 seconds at a flow-rate of 30 μL/min. 56 nM BCL-2 control samples were also prepared and run at regular intervals during the assay. Surface regeneration was performed at the end of each analysis cycle by two 30 second injections of 10 mM Glycine, pH 2.5, 1M Sodium Chloride, 0.05% polysorbate 20. Samples and control compound samples were run in duplicate and controls are also run at regular intervals during the assay to monitor surface and assay performance.
(§7) Data analyses are carried out using Biacore™ A100 evaluation software v1.1 to validate assay quality. Binding level report points were used relative to BCL-2 control samples to calculate % inhibition values for each compound protein mixture. […] The range of data shown in table 1 represents the high and low IC50 values obtained from multiple experiments.

[2] = molecular target: BCL-2 (binding to BAK peptide) (Homo sapiens, UniProt P10415); test: SPR (Biacore) solution inhibition assay, BCL-2 binding to immobilized BAK peptide; conditions: biotinylated BAK peptide surface, 56 nM BCL-2, 25° C.; range = high and low IC50 values from multiple experiments; read-out: BCL2_SPR IC50 BAK
From the text: as §1, §2, §3, §4, §5, §6, §7

Chain of BCL-2 (binding to BAK peptide) (P10415 whole entry): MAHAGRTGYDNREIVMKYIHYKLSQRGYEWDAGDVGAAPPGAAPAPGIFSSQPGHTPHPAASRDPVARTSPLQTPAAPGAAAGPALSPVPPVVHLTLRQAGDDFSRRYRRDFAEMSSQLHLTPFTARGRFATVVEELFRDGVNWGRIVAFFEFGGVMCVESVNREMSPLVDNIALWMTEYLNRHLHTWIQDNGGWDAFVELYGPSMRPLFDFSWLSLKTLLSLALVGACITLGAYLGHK
Chain of BCL-2 (binding to BAD peptide) (P10415 whole entry): as above

Compound | IC50 [1] | IC50 [2]
CCCCN(CCCC)C(=O)c1cc(C)n(-c2ccc(NC(=O)c3cccc(Cl)c3O)cc2C(=O)N2Cc3ccccc3C[C@H]2CO)n1 [Example 83] | 81.6 to 89.1 nM | 65.3 to 69.7 nM
CCCCN(CCCC)C(=O)c1cc(C)n(-c2ccc(NC(=O)c3ccc4c(c3)N=S=N4)cc2C(=O)N2Cc3ccccc3C[C@H]2CO)n1 [Example 84] | 1020 to 1040 nM | 862 to 957 nM
CCCCN(CCCC)C(=O)c1cc(C)n(-c2ccc(NC(=O)c3cc(C(C)C)nn3CC)cc2C(=O)N2Cc3ccccc3C[C@H]2CO)n1 [Example 85] | 923 to 932 nM | 741 to 784 nM
CCCCN(CCCC)C(=O)c1cc(C)n(-c2ccc(NC(=O)c3ccc4c(C)c(C)[nH]c4c3)cc2C(=O)N2Cc3ccccc3C[C@H]2CO)n1 [Example 86] | 611 to 628 nM | 432 to 440 nM
CCCCN(CCCC)C(=O)c1cc(C)n(-c2ccc(NC(=O)c3cc4cc(O)ccc4[nH]3)cc2C(=O)N2Cc3ccccc3C[C@H]2CO)n1 [Example 87] | 350 to 375 nM | 486 to 509 nM
CCCCN(CCCC)C(=O)c1cc(C)n(-c2ccc(NC(=O)c3cnc(N4CCCC4)nc3)cc2C(=O)N2Cc3ccccc3C[C@H]2CO)n1 [Example 88] | 388 to 405 nM | 290 to 393 nM
CCCCN(CCCC)C(=O)c1cc(C)n(-c2ccc(NC(=O)c3cc(SC)ccc3Cl)cc2C(=O)N2Cc3ccccc3C[C@H]2CO)n1 [Example 89] | 282 to 288 nM | 222 to 231 nM
CCCCN(CCCC)C(=O)c1cc(C)n(-c2ccc(NC(=O)CC(C)S(=O)(=O)c3ccc(Cl)cc3)cc2C(=O)N2Cc3ccccc3C[C@H]2CO)n1 (some centres unmarked) [Example 90] | 156 to 210 nM | 159 to 187 nM
CCCCN(CCCC)C(=O)c1cc(C)n(-c2ccc(NC(=O)c3ccc(Oc4ccc(F)cc4)cc3)cc2C(=O)N2Cc3ccccc3C[C@H]2CO)n1 [Example 91] | > 16000 nM | 3740 to 4130 nM
CCCCN(CCCC)C(=O)c1cc(C)n(-c2ccc(NC(=O)c3ccccc3COc3ccccc3)cc2C(=O)N2Cc3ccccc3C[C@H]2CO)n1 [Example 92] | 1270 to 1350 nM | 1120 to 1180 nM
CCCCN(CCCC)C(=O)c1cc(C)n(-c2ccc(NC(=O)c3ccc(OC(F)(F)F)cc3)cc2C(=O)N2Cc3ccccc3C[C@H]2CO)n1 [Example 93] | 1850 to 1900 nM | 1770 to 1830 nM
CCCCN(CCCC)C(=O)c1cc(C)n(-c2ccc(NC(=O)c3nn(-c4ccccc4)c(=O)cc3O)cc2C(=O)N2Cc3ccccc3C[C@H]2CO)n1 [Example 94] | 25.7 to 31.7 nM | 30.7 to 31.1 nM
CCCCN(CCCC)C(=O)c1cc(C)n(-c2ccc(NC(=O)Cc3ccc(OC)c(C)c3)cc2C(=O)N2Cc3ccccc3C[C@H]2CO)n1 [Example 95] | 148 to 155 nM | 107 to 108 nM
CCCCN(CCCC)C(=O)c1cc(C)n(-c2ccc(NC(=O)Cc3ccc(OC)c(Cl)c3)cc2C(=O)N2Cc3ccccc3C[C@H]2CO)n1 [Example 96] | 86.2 to 91.5 nM | 71.2 to 76 nM
CCCCN(CCCC)C(=O)c1cc(C)n(-c2ccc(NC(=O)Cc3ccc(OC)c(F)c3)cc2C(=O)N2Cc3ccccc3C[C@H]2CO)n1 [Example 97] | 201 to 210 nM | 146 to 168 nM
CCCCN(CCCC)C(=O)c1cc(C)n(-c2ccc(NC(=O)Cc3ccc(F)cc3)cc2C(=O)N2Cc3ccccc3C[C@H]2CO)n1 [Example 98] | 302 to 306 nM | 244 to 267 nM
CCCCN(CCCC)C(=O)c1cc(C)n(-c2ccc(NC(=O)C(CC(=O)N(C)C)c3ccccc3)cc2C(=O)N2Cc3ccccc3C[C@H]2CO)n1 (some centres unmarked) [Example 99] | 130 to 171 nM | 111 to 144 nM
CCCCN(CCCC)C(=O)c1cc(C)n(-c2ccc(NC(=O)C(C)CC(=O)O)cc2C(=O)N2Cc3ccccc3C[C@H]2CO)n1 (some centres unmarked) [Example 100] | 172 to 174 nM | 127 to 129 nM
CCCCN(CCCC)C(=O)c1cc(C)n(-c2ccc(NC(=O)C3CC(=O)N(Cc4ccccc4)C3)cc2C(=O)N2Cc3ccccc3C[C@H]2CO)n1 (some centres unmarked) [Example 101] | 130 to 167 nM | 114 to 150 nM
CCCCN(CCCC)C(=O)c1cc(C)n(-c2ccc(NC(=O)c3cn4ccsc4n3)cc2C(=O)N2Cc3ccccc3C[C@H]2CO)n1 [Example 102] | 364 to 394 nM | 268 nM

Compound | IC50 [1] | IC50 [2]
CCCCC(CCCC)C(=O)c1cc(C)n(-c2ccc(NC(=O)C(CC(=O)O)C3CCCCC3)cc2C(=O)N2Cc3ccccc3C[C@H]2CO)n1 (some centres unmarked) [Example 103] | 54.1 to 55.9 nM | 50.2 to 51.9 nM
CCCCN(CCCC)C(=O)c1cc(C)n(-c2ccc(NC(=O)C3CC(=O)N(CCc4ccc(OC)c(OC)c4)C3)cc2C(=O)N2Cc3ccccc3C[C@H]2CO)n1 (some centres unmarked) [Example 104] | 351 to 376 nM | 252 to 256 nM
CCCCN(CCCC)C(=O)c1cc(C)n(-c2ccc(NC(=O)C(CCO)c3ccccc3)cc2C(=O)N2Cc3ccccc3C[C@H]2CO)n1 (some centres unmarked) [Example 105] | 114 to 119 nM | 89.4 to 94.3 nM
CCCCN(CCCC)C(=O)c1cc(C)n(-c2ccc(NC(=O)Cc3nc(-c4ccccc4)oc3C)cc2C(=O)N2Cc3ccccc3C[C@H]2CO)n1 [Example 106] | 131 to 140 nM | 106 to 110 nM
CCCCN(CCCC)C(=O)c1cc(C)n(-c2ccc(NC(=O)c3cnn4cccnc34)cc2C(=O)N2Cc3ccccc3C[C@H]2CO)n1 [Example 107] | 693 to 748 nM | 497 to 520 nM
CCCCN(CCCC)C(=O)c1cc(C)n(-c2ccc(NC(=O)c3oc(C)nc3C)cc2C(=O)N2Cc3ccccc3C[C@H]2CO)n1 [Example 108] | 1020 to 1120 nM and 691 to 730 nM | 629 to 841 nM and 429 to 430 nM
CCCCN(CCCC)C(=O)c1cc(C)n(-c2ccc(NC(=O)c3cc(C)[nH]n3)cc2C(=O)N2Cc3ccccc3C[C@H]2CO)n1 [Example 109] | 477 to 528 nM | 505 to 525 nM
CCCCC(CCCC)C(=O)c1cc(C)n(-c2ccc(NC(=O)COc3cccc4ccccc34)cc2C(=O)N2Cc3ccccc3C[C@H]2CO)n1 [Example 110] | 273 to 318 nM | 250 to 272 nM
CCCCN(CCCC)C(=O)c1cc(C)n(-c2ccc(NC(=O)CC3NC(=O)NC3=O)cc2C(=O)N2Cc3ccccc3C[C@H]2CO)n1 (some centres unmarked) [Example 111] | 763 to 799 nM | 553 to 566 nM
CCCCN(CCCC)C(=O)c1cc(C)n(-c2ccc(NC(=O)c3n[nH]c4c3CCC4)cc2C(=O)N2Cc3ccccc3C[C@H]2CO)n1 [Example 112] | 964 to 1030 nM | 696 to 875 nM
CCCCN(CCCC)C(=O)c1cc(C)n(-c2ccc(NC(=O)[C@H](C)c3ccccc3)cc2C(=O)N2Cc3ccccc3C[C@H]2CO)n1 [Example 113] | 671 to 708 nM | 562 to 660 nM
CCCCN(CCCC)C(=O)c1cc(C)n(-c2ccc(NC(=O)C(C)c3ccc4ccccc4c3)cc2C(=O)N2Cc3ccccc3C[C@H]2CO)n1 (some centres unmarked) [Example 114] | 61.9 to 73.1 nM and 64.1 to 72.9 nM and 51 to 54.5 nM | 57.2 to 59.9 nM and 58.3 to 62 nM and 52.4 to 53.4 nM
CCCCN(CCCC)C(=O)c1cc(C)n(-c2ccc(NC(=O)C3CC(=O)N(c4ccc(OCC)cc4)C3)cc2C(=O)N2Cc3ccccc3C[C@H]2CO)n1 (some centres unmarked) [Example 115] | 180 to 204 nM | 153 to 154 nM
CCCCN(CCCC)C(=O)c1cc(C)n(-c2ccc(NC(=O)c3cccn(Cc4ccccc4)c3=O)cc2C(=O)N2Cc3ccccc3C[C@H]2CO)n1 [Example 116] | 839 to 856 nM | 731 to 786 nM
CCCCN(CCCC)C(=O)c1cc(C)n(-c2ccc(NC(=O)C(CC(N)=O)c3ccccc3)cc2C(=O)N2Cc3ccccc3C[C@H]2CO)n1 (some centres unmarked) [Example 117] | 82.1 to 88.8 nM | 67.5 to 71.4 nM
CCCCN(CCCC)C(=O)c1cc(C)n(-c2ccc(NC(=O)Cc3cccnc3)cc2C(=O)N2Cc3ccccc3C[C@H]2CO)n1 [Example 118] | 164 to 171 nM | 139 to 153 nM
CCCCN(CCCC)C(=O)c1cc(C)n(-c2ccc(NC(=O)CN3CC(c4ccccc4)CC3=O)cc2C(=O)N2Cc3ccccc3C[C@H]2CO)n1 (some centres unmarked) [Example 119] | 111 to 112 nM | 94 to 98.2 nM
CCCCN(CCCC)C(=O)c1cc(C)n(-c2ccc(NC(=O)c3cc(-c4ccccc4)nn3-c3ccc(F)cc3)cc2C(=O)N2Cc3ccccc3C[C@H]2CO)n1 [Example 120] | 726 to 732 nM | 494 to 559 nM
CCCCN(CCCC)C(=O)c1cc(C)n(-c2ccc(NC(=O)Cc3noc4ccccc34)cc2C(=O)N2Cc3ccccc3C[C@H]2CO)n1 [Example 121] | 61.2 to 66.9 nM | 54.4 to 58.5 nM
CCCCN(CCCC)C(=O)c1cc(C)n(-c2ccc(NC(=O)c3csc(N4CCOCC4)n3)cc2C(=O)N2Cc3ccccc3C[C@H]2CO)n1 [Example 122] | 317 to 325 nM | 237 to 257 nM
